“Also recorded” adds a separate entry of the source.
Test system: Jurkat cells
Experiment: Calibration of sodium indicator fluorescence response in cells (flow cytometry)
Assay type: cell-based
Details: Jurkat cells loaded with 5 µM for 30 minutes at 37 °C, 2 µM gramicidin, extracellular Na+ 0-145 mM, excitation at 488 nm
Experimental: Example 3: Calibration of sodium indicator fluorescence response in cells.
Jurkat cells were loaded with a 5 µM solution of either Compound 25 (a compound according to Formula (I) as shown below), or commercially available SODIUM GREEN tetraacetate indicator (Molecular Probes, Inc., Eugene, OR) and 10 µM for Compound 87 (Example 9) for 30 minutes at 37 °C. The use of PLURONIC dispersing agent helped dissolve the selected indicator. Intracellular sodium concentrations were then established by varying the sodium concentration of the extracellular buffer in the presence of 2 µM gramicidin (a sodium-pore forming antibiotic). The extracellular buffer was set at 0 mM, 10 mM, 20 mM, 50 mM, 100 mM, and 145 mM, respectively. Intracellular fluorescence response of the selected indicators was measured using a FACSCAN flow cytometer and associated software, with fluorescence excitation at 488 nm.

CC(=O)OCOC(=O)CN1CCOCCN(CC(=O)OCOC(C)=O)c2ccc(-c3c4cc(F)c(=O)cc-4oc4cc(OCOC(C)=O)c(F)cc34)cc2OCCOc2cc(C)ccc21 [Compound 25]
intracellular fluorescence intensity as intracellular Na^+ concentration was increased: consistent increase in fluorescence intensity | intracellular fluorescence intensity compared with SODIUM GREEN indicator (Figure 3): substantially brighter intracellular fluorescence intensity than the SODIUM GREEN indicator; also recorded: stronger fluorescence intensity than SODIUM GREEN sodium indicator
